Test results published in ChEMBL document CHEMBL1159213, “Terezines A-D: new amino acid-derived bioactive metabolites from the coprophilous fungus Sporormiella teretispora” (1995).

Legend:
Assay type in all cases: functional
[1] = test system: Bacillus subtilis; test: Antibacterial activity against Bacillus subtilis ATCC 6051 at 100 ug/disk by standard disk assay; settings: read-out: IZ
[2] = test system: Candida albicans; test: Antifungal activity against Candida albicans ATCC 14053 at 200 ug/disk by standard disk assay; settings: read-out: IZ
[3] = test system: Staphylococcus aureus; test: Antibacterial activity against Staphylococcus aureus ATCC 29213 at 100 ug/disk by standard disk assay; settings: read-out: IZ
[4] = test system: Sordaria fimicola; test: Antifungal activity against Sordaria fimicola NRRL 6459 assessed as reduction in radial growth at 200 ug/disk by centerpoint inoculation disk assay; set-up: scale not given: the % may be the effect or the level left
[5] = test system: Ascobolus; test: Antifungal activity against Ascobolus furfuraceus NRRL 6460 assessed as reduction in radial growth at 200 ug/disk by centerpoint inoculation disk assay; set-up: scale not given: the % may be the effect or the level left

Row | Compound | zone of inhibition at 100 µg/disc [1] | zone of inhibition at 200 µg/disc [2] | zone of inhibition at 100 µg/disc [3] | Activity [4] | Activity [5]
1 | COc1nc(C(C)C)c(O)nc1[C@H](O)c1ccccc1 [TEREZINE A] | 8 mm | 8 mm | 8 mm | 95% | 95%
2 | COC1=N[C@@](OC)(C(C)C)C(=O)N[C@@]1(O)[C@H](O)c1ccccc1 [TEREZINE C] | 8 mm |  | 8 mm | 41% | 
3 | CC(C)=CCc1cccc2c(C[C@@H]3NC(=O)[C@H](C)NC3=O)c[nH]c12 [TEREZINE D] |  |  |  | 50% | 
4 | COC1=N[C@](OC)(C(C)C)C(=O)N[C@@]1(O)[C@H](O)c1ccccc1 [TEREZINE B] | 8 mm |  |  |  | 
